The source of these data is US10780090B2, “Heteroaryl compounds useful as inhibitors of SUMO activating enzyme” (Millennium Pharmaceuticals, Inc., priority 2014, dated 2020).

In general, IC50 refers to the concentration that gives 50% inhibition.

Each structure is given as a SMILES string. Some results are limits rather than exact numbers.

This assay has as its target recombinant human SAE enzyme (Homo sapiens (Human), UniProt Q9UBT2). Put plainly: SAE HTRF enzyme assay. The note with it: for Percent Inhibition: Concentration 0.111 μM; for IC50: class symbols A/B/C. It counts as biochemical. A digest of the protocol:
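Sumoylation of Ubc9-GST by SAE was followed at low ATP (0.5 μM), pH 7.5, 24° C. for 105 min. Product was detected by HTRF with antibody pairs against Flag and GST tags.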
(Time-resolved FRET reads energy transfer from a long-lived donor to a nearby acceptor.)

Chain of recombinant human SAE enzyme (Q9UBT2 whole entry): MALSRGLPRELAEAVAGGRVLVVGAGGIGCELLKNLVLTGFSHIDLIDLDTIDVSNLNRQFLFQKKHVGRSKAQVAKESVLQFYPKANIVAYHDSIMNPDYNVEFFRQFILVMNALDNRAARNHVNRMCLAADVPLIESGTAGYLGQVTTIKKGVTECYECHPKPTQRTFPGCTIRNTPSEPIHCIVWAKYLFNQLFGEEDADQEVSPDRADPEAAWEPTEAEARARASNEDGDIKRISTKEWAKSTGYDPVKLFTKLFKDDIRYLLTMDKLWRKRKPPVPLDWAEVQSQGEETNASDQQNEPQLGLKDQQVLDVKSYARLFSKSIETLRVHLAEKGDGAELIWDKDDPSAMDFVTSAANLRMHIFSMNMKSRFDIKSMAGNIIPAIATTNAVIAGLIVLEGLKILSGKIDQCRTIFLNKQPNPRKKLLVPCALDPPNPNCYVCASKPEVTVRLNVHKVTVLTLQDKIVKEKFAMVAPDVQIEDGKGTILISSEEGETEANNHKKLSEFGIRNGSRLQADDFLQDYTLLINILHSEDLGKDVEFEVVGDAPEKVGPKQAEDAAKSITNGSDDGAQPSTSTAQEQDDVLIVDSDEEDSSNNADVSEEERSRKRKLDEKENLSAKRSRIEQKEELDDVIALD
Chain of recombinant human SAE enzyme (Q9UBE0 whole entry partner): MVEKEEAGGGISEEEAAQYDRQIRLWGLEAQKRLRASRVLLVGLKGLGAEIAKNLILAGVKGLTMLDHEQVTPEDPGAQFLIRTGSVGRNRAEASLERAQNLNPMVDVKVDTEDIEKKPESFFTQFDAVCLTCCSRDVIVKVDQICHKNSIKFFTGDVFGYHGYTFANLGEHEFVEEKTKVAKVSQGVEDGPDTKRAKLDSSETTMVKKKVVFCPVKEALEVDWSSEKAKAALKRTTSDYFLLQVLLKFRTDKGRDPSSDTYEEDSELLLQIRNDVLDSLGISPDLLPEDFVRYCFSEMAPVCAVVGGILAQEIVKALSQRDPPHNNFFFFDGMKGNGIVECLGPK

Consider `NS(=O)(=O)OC[C@H]1C[C@@H](Nc2ncncc2C(=O)c2cc([C@@H]3OCCc4ccccc43)cs2)C[C@@H]1O` (single isomer, unassigned) [I-254b, [(1R,2S,4R)-4-{[5-({4-[(1R)-3,4-dihydro-1H-isochromen-1-yl]-2-thienyl}carbonyl)pyrimidin-4-yl]amino}-2-hydroxycyclopentyl]methyl sulfamate or [(1R,2S,4R)-4-{[5-({4-[(S)-3,4-dihydro-1H-isochromen-1-yl]-2-thienyl}carbonyl)pyrimidin-4-yl]amino}-2-hydroxycyclopentyl]methyl sulfamate], for which the “Percent Inhibition” value turned out to be 99 and the IC50 is under 10 nM.

On to `NS(=O)(=O)OC[C@H]1C[C@@H](Nc2ncncc2C(=O)c2cc(C3NCCc4ccc(Cl)cc43)c(Cl)s2)C[C@@H]1O` (single isomer, unassigned) [I-255a, [(1R,2S,4R)-4-{[5-({5-chloro-4-[(1R)-7-chloro-1,2,3,4-tetrahydroisoquinolin-1-yl]-2-thienyl}carbonyl)pyrimidin-4-yl]amino}-2-hydroxycyclopentyl]methyl sulfamate or [(1R,2S,4R)-4-{[5-({5-chloro-4-[(1S)-7-chloro-1,2,3,4-tetrahydroisoquinolin-1-yl]-2-thienyl}carbonyl)pyrimidin-4-yl]amino}-2-hydroxycyclopentyl]methyl sulfamate], for which the “Percent Inhibition” value is 93 and the IC50 was 10 to 100 nM.

Turning to `NS(=O)(=O)OC[C@H]1C[C@@H](Nc2ncncc2C(=O)c2cc(C3NCCc4ccc(Cl)cc43)c(Cl)s2)C[C@@H]1O` (single isomer, unassigned) [I-255b, [(1R,2S,4R)-4-{[5-({5-chloro-4-[(1R)-7-chloro-1,2,3,4-tetrahydroisoquinolin-1-yl]-2-thienyl}carbonyl)pyrimidin-4-yl]amino}-2-hydroxycyclopentyl]methyl sulfamate or [(1R,2S,4R)-4-{[5-({5-chloro-4-[(1S)-7-chloro-1,2,3,4-tetrahydroisoquinolin-1-yl-2-thienyl}carbonyl)pyrimidin-4-yl]amino}-2-hydroxycyclopentyl]methyl sulfamate], the “Percent Inhibition” value stood at 100 and the IC50 is under 10 nM.

Turning to `Cc1sc(C(=O)c2cncnc2N[C@@H]2C[C@H](COS(N)(=O)=O)[C@@H](O)C2)cc1[C@@H]1OCCc2ccc(C(F)(F)F)cc21` (single isomer, unassigned) [I-258a, [(1R,2S,4R)-2-hydroxy-4-{[5-({5-methyl-4-[(1R)-7-(trifluoromethyl)-3,4-dihydro-1H-isochromen-1-yl]-2-thienyl}carbonyl)pyrimidin-4-yl]amino}cyclopentyl]methyl sulfamate or [(1R,2S,4R)-2-hydroxy-4-{[5-({5-methyl-4-[(1S)-7-(trifluoromethyl)-3,4-dihydro-1H-isochromen-1-yl]-2-thienyl}carbonyl)pyrimidin-4-yl]amino}cyclopentyl]methyl sulfamate], the “Percent Inhibition” value turned out to be 98 and the IC50 is under 10 nM.

Turning to `Cc1sc(C(=O)c2cncnc2N[C@@H]2C[C@H](COS(N)(=O)=O)[C@@H](O)C2)cc1[C@@H]1OCCc2ccc(C(F)(F)F)cc21` (single isomer, unassigned) [I-258b, [(1R,2S,4R)-2-hydroxy-4-{[5-({5-methyl-4-[(1R)-7-(trifluoromethyl)-3,4-dihydro-1H-isochromen-1-yl]-2-thienyl}carbonyl)pyrimidin-4-yl]amino}cyclopentyl]methyl sulfamate or [(1R,2S,4R)-2-hydroxy-4-{[5-({5-methyl-4-[(1S)-7-(trifluoromethyl)-3,4-dihydro-1H-isochromen-1-yl]-2-thienyl}carbonyl)pyrimidin-4-yl]amino}cyclopentyl]methyl sulfamate], the “Percent Inhibition” value is recorded as 72 and the IC50 fell in the range of 10 to 100 nM.

In the case of `NS(=O)(=O)OC[C@H]1C[C@@H](Nc2ncncc2C(=O)c2cc([C@@H]3NCCc4ccc(Br)cc43)c(Cl)s2)[C@H](O)[C@@H]1O` (single isomer, unassigned) [I-259a, [(1R,2R,3S,4R)-4-{[5-({4-[(1R)-7-bromo-1,2,3,4-tetrahydroisoquinolin-1-yl]-5-chloro-2-thienyl}carbonyl)pyrimidin-4-yl]amino}-2,3-dihydroxycyclopentyl]methyl sulfamate or [(1R,2R,3S,4R)-4-{[5-({4-[(1S)-7-bromo-1,2,3,4-tetrahydroisoquinolin-1-yl]-5-chloro-2-thienyl}carbonyl)pyrimidin-4-yl]amino}-2,3-dihydroxycyclopentyl]methyl sulfamate], the “Percent Inhibition” value was 100 and the IC50 is under 10 nM.

`NS(=O)(=O)OC[C@H]1C[C@@H](Nc2ncncc2C(=O)c2cc([C@@H]3NCCc4ccc(Br)cc43)c(Cl)s2)[C@H](O)[C@@H]1O` (single isomer, unassigned) [I-259b, [(1R,2R,3S,4R)-4-{[5-({4-[(1R)-7-bromo-1,2,3,4-tetrahydroisoquinolin-1-yl]-5-chloro-2-thienyl}carbonyl)pyrimidin-4-yl]amino}-2,3-dihydroxycyclopentyl]methyl sulfamate or [(1R,2R,3S,4R)-4-{[5-({4-[(1S)-7-bromo-1,2,3,4-tetrahydroisoquinolin-1-yl]-5-chloro-2-thienyl}carbonyl)pyrimidin-4-yl]amino}-2,3-dihydroxycyclopentyl]methyl sulfamate]: the “Percent Inhibition” value came out at 97 and the IC50 is under 10 nM.

In the case of `Cc1sc(C(=O)c2cncnc2N[C@@H]2C[C@H](COS(N)(=O)=O)[C@@H](O)C2)cc1[C@H]1OCC(F)(F)c2ccc(Cl)nc21` (single isomer, unassigned) [I-260a, [(1R,2S,4R)-4-{[5-({4-[(8R)-2-chloro-5,5-difluoro-5,8-dihydro-6H-pyrano[3,4-b]pyridin-8-yl]-5-methyl-2-thienyl}carbonyl)pyrimidin-4-yl]amino}-2-hydroxycyclopentyl]methyl sulfamate or [(1R,2S,4R)-4-{[5-({4-[(8S)-2-chloro-5,5-difluoro-5,8-dihydro-6H-pyrano[3,4-b]pyridin-8-yl]-5-methyl-2-thienyl}carbonyl)pyrimidin-4-yl]amino}-2-hydroxycyclopentyl]methyl sulfamate], the “Percent Inhibition” value amounted to 99 and the IC50 is under 10 nM.

Turning to `Cc1sc(C(=O)c2cncnc2N[C@@H]2C[C@H](COS(N)(=O)=O)[C@@H](O)C2)cc1[C@H]1OCC(F)(F)c2ccc(Cl)nc21` (single isomer, unassigned) [I-260b, [(1R,2S,4R)-4-{[5-({4-[(8R)-2-chloro-5,5-difluoro-5,8-dihydro-6H-pyrano[3,4-b]pyridin-8-yl]-5-methyl-2-thienyl}carbonyl)pyrimidin-4-yl]amino}-2-hydroxycyclopentyl]methyl sulfamate or [(1R,2S,4R)-4-{[5-({4-[(8S)-2-chloro-5,5-difluoro-5,8-dihydro-6H-pyrano[3,4-b]pyridin-8-yl]-5-methyl-2-thienyl}carbonyl)pyrimidin-4-yl]amino}-2-hydroxycyclopentyl]methyl sulfamate], the “Percent Inhibition” value is 98 and the IC50 was under 10 nM.

For `NS(=O)(=O)OC[C@H]1C[C@@H](Nc2ncncc2C(=O)c2cc(C3OCCc4ccc(Cl)cc43)cs2)C[C@@H]1O` (single isomer, unassigned) [I-261a, [(1R,2S,4R)-4-{[5-({4-[(1R)-7-chloro-3,4-dihydro-1H-isochromen-1-yl]-2-thienyl}carbonyl)pyrimidin-4-yl]amino}-2-hydroxycyclopentyl]methyl sulfamate or [(1R,2S,4R)-4-{[5-({4-[(1S)-7-chloro-3,4-dihydro-1H-isochromen-1-yl]-2-thienyl}carbonyl)pyrimidin-4-yl]amino}-2-hydroxycyclopentyl]methyl sulfamate], the “Percent Inhibition” value was found to be 76 and the IC50 was in the range of 10 to 100 nM.

Take `NS(=O)(=O)OC[C@H]1C[C@@H](Nc2ncncc2C(=O)c2cc(C3OCCc4ccc(Cl)cc43)cs2)C[C@@H]1O` (single isomer, unassigned) [I-261b, [(1R,2S,4R)-4-{[5-({4-[(1R)-7-chloro-3,4-dihydro-1H-isochromen-1-yl]-2-thienyl}carbonyl)pyrimidin-4-yl]amino}-2-hydroxycyclopentyl]methyl sulfamate or [(1R,2S,4R)-4-{[5-({4-[(1S)-7-chloro-3,4-dihydro-1H-isochromen-1-yl]-2-thienyl}carbonyl)pyrimidin-4-yl]amino}-2-hydroxycyclopentyl]methyl sulfamate]: the “Percent Inhibition” value was determined as 99 and the IC50 is under 10 nM.

In the case of `NS(=O)(=O)OC[C@H]1C[C@@H](Nc2ncncc2C(=O)c2cc([C@@H]3NCc4ccc(Cl)cc43)c(Cl)s2)C[C@@H]1O` (single isomer, unassigned) [I-262a, [(1R,2S,4R)-4-{[5-({5-chloro-4-[(1R)-6-chloro-2,3-dihydro-1H-isoindol-1-yl]-2-thienyl}carbonyl)pyrimidin-4-yl]amino}-2-hydroxycyclopentyl]methyl sulfamate or [(1R,2S,4R)-4-{[5-({5-chloro-4-[(1S)-6-chloro-2,3-dihydro-1H-isoindol-1-yl]-2-thienyl}carbonyl)pyrimidin-4-yl]amino}-2-hydroxycyclopentyl]methyl sulfamate], the “Percent Inhibition” value came out at 98 and the IC50 was under 10 nM.

`NS(=O)(=O)OC[C@H]1C[C@@H](Nc2ncncc2C(=O)c2cc([C@@H]3NCc4ccc(Cl)cc43)c(Cl)s2)C[C@@H]1O` (single isomer, unassigned) [I-262b, [(1R,2S,4R)-4-{[5-({5-chloro-4-[(1R)-6-chloro-2,3-dihydro-1H-isoindol-1-yl]-2-thienyl}carbonyl)pyrimidin-4-yl]amino}-2-hydroxycyclopentyl]methyl sulfamate or [(1R,2S,4R)-4-{[5-({5-chloro-4-[(1S)-6-chloro-2,3-dihydro-1H-isoindol-1-yl]-2-thienyl}carbonyl)pyrimidin-4-yl]amino}-2-hydroxycyclopentyl]methyl sulfamate]: the “Percent Inhibition” value was found to be 98 and the IC50 was under 10 nM.
